Test results published in US20220218679A1, “NOVEL COMPOUNDS AND PHARMACEUTICAL COMPOSITIONS THEREOF FOR THE TREATMENT OF INFLAMMATORY DISORDERS” (Galapagos NV, priority 2019, published 2022).
Values after ≈ are worked out from the molar mass of the structure shown. Read-outs that look alike come from different tables or passages of the source.

Assay: Thermodynamic solubility
Format: physicochemical
Conditions: 37 °C, thermodynamic from solid
From the text: 4.2. Thermodynamic Solubility
Poor solubility, in particular poor thermodynamic solubility can limit the absorption of compounds from the gastrointestinal tract which in turn may reduce oral bioavailability.
Thermodynamic solubility investigates the solubility of a compound as a saturated solution in equilibrium, by opposition to kinetic solubility, which measures the solubility of a metastable solution where supersaturation may occur and provide over estimation of the actual solubility of the compound. (Klein, 2010)
4.2.2. Thermodynamic Solubility—Protocol 2
In a 8 mL glass vial, 1-2 mg of dry matter of compound were added and stirred with the suitable buffers (Fed State Simulated Intestine Fluid, FeSSIF, or Fasted State Simulated Intestine Fluid, FaSSIF, or Fasted State Simulated Gastric Fluid, FaSSGF, or phosphate buffer pH 7.4) for 24 h at r.t. (for the buffer pH 7.4) or 37° C. (for the GI fluids). The concentration of the mixture was 1 mg/mL.
A volume of 1000 μL were sampled, centrifuged for 10 min at 10 000 rpm and 500 μL of the supernatant were filtered on captiva plate. The samples were diluted in duplicates in DMSO (F100 and F10). Then, a final dilution (F100) in 80/20 H2O/MeCN containing the internal standard (warfarin) was used for LCMS-MS analysis.
A standard curve was made starting from a 40,000 ng/mL stock in DMSO, freshly prepared from dry matter. Then, successive concentrations at 15,000, 11,000, 6,000, 2,500, 1,000, 375, 150 and 75 ng/mL in DMSO were prepared.
Three quality control samples were made: one of 10,000, 1,500 and 200 ng/mL in DMSO, also starting from the DMSO working stock solution at 40,000 ng/mL.
The standard curve and quality controls were diluted a F100 in 80/20 H2O/MeCN (with internal standard) and analyzed on LC/MS-MS (API4000 or API5500).
The samples were analyzed on LC-MS with a flow rate of 0.6 mL/min. The mobile phase A was 0.1% formic acid in water and the mobile phase B was 0.1% formic acid in 90% MeCN and 10% of H2O. The sample was run under positive or negative ion spray on Pursuit C18—5 μm (2.0×20 mm) column, from Agilent.
The ratio analyte/internal standard peaks areas of the standard curve were plotted in a graph and a linear or polynomial of the second order equation was used to calculate the unknown concentrations of the test compound.
Solubility values were reported in μg/mL.

[1] = Fasted State Simulated Gastric Fluid (FaSSGF), fassgf or other biorelevant, Fasted State Simulated Gastric Fluid, read-out: Tsol FaSSGF
[2] = Fasted State Simulated Intestine Fluid (FaSSIF), fassif, Fasted State Simulated Intestine Fluid, read-out: Tsol FaSSIF
[3] = Fed State Simulated Intestine Fluid (FeSSIF), fessif, Fed State Simulated Intestine Fluid, read-out: Tsol FeSSIF

| solubility thermodynamic at 24 h [1] | solubility thermodynamic at 24 h [2] | solubility thermodynamic at 24 h [3] | SMILES |
| --- | --- | --- | --- |
| < 0.75 µg/mL | < 0.75 µg/mL | < 0.75 µg/mL | CNC(=O)c1cn2nc(C3CCCS(=O)(=O)C3)cc2cc1NC(=O)c1cccc(C(F)(F)F)n1 (centres unmarked) [Compound 8, 2-(1,1-dioxothian-3-yl)-N-methyl-5-[[6-(trifluoromethyl)pyridine-2-carbonyl]amino]pyrazolo[1,5-a]pyridine-6-carboxamide] |
| 8.26 µg/mL (≈ 19.1 µM) | 12.5 µg/mL (≈ 29 µM) | 70.6 µg/mL (≈ 164 µM) | CNC(=O)c1cn2nc(CCC(C)(C)O)cc2cc1NC(=O)c1cccc(C(F)F)n1 [Compound 19, 5-[[6-(difluoromethyl)pyridine-2-carbonyl]amino]-2-(3-hydroxy-3-methyl-butyl)-N-methyl-pyrazolo[1,5-a]pyridine-6-carboxamide] |
|  | 1.29 µg/mL (≈ 3.11 µM) |  | NC(=O)c1cn2nc(C3CCOCC3)cc2cc1NC(=O)c1cccc(C(F)F)n1 [Compound 16, 5-[[6-(difluoromethyl)pyridine-2-carbonyl]amino]-2-tetrahydropyran-4-yl-pyrazolo[1,5-a]pyridine-6-carboxamide] |
| 8.45 µg/mL (≈ 19.9 µM) | 1.77 µg/mL (≈ 4.17 µM) |  | COc1c(NC(=O)c2cccn(C3CC3)c2=O)cc2cc(CCC(C)(C)O)nn2c1C [Compound 13, 1-cyclopropyl-N-[2-(3-hydroxy-3-methyl-butyl)-6-methoxy-7-methyl-pyrazolo[1,5-a]pyridin-5-yl]-2-oxo-pyridine-3-carboxamide] |
| 1.62 µg/mL (≈ 3.88 µM) | 3.09 µg/mL (≈ 7.4 µM) |  | CC(C)(O)CCc1cc2cc(NC(=O)c3cccc(C(F)F)n3)c(C(N)=O)cn2n1 [Compound 20, 5-[[6-(difluoromethyl)pyridine-2-carbonyl]amino]-2-(3-hydroxy-3-methyl-butyl)pyrazolo[1,5-a]pyridine-6-carboxamide] |
